Laboratory results taken from patent publication US20240384268A1, “Oligonucleotides” (Hudson Institute of Medical Research, priority 2021, published 2024).
In the oligonucleotide strings, read from the 5' end, every base follows the letter of its sugar. An asterisk marks phosphorothioate; unmarked linkages are phosphodiester. Other units and linkages are bracketed, terminal groups are in braces. A string of capitals states the bases alone. d = 2'-deoxy (DNA); m = 2'-O-methyl

molecular target: T1, TLR8 (Homo sapiens, UniProt Q9NR97); experiment: HEK-TLR8 NF-κB-luciferase reporter, R848 or Motolimod stimulation (potentiation or inhibition); type: cell-based; set-up: expressed in transfected cells; host or cells: 293XLhTLR8 (HEK293); conditions: HEK-TLR8; 500 nM ASO; fold increase relative to R848 without ASO (Alharbi et al., 2020)
T1 sequence (Q9NR97 27-1041): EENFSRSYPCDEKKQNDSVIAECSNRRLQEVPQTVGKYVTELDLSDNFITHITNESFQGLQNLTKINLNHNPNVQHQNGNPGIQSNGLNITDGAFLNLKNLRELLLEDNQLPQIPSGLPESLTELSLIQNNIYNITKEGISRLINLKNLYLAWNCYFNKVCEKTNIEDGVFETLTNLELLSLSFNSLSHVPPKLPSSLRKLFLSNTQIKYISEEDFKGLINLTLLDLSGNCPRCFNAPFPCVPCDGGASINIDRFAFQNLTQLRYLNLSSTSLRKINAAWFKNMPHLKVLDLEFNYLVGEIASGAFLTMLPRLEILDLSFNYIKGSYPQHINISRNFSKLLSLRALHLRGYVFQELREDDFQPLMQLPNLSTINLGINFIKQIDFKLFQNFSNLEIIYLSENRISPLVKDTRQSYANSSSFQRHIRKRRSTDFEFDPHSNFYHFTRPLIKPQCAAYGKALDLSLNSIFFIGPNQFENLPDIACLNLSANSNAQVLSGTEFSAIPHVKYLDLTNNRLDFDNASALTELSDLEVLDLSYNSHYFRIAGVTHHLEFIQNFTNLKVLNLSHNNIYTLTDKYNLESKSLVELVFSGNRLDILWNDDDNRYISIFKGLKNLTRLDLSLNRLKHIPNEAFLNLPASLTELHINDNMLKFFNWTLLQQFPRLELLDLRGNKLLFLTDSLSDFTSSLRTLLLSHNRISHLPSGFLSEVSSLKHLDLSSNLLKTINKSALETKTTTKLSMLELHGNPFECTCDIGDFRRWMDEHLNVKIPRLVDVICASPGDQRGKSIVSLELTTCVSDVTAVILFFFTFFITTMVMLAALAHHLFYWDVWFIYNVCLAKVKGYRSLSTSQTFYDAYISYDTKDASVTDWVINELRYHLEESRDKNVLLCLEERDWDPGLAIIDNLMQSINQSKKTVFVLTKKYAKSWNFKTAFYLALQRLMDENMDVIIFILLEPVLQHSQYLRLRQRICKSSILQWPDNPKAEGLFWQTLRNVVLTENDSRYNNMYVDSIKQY

Substance	TLR8-500 nM: averaged NF-κB-Luciferase relative to R848 [fold]
mG*mU*mU*mC*mA*G*T*C*A*G*A*T*C*G*C*mU*mG*mG*mG*mA (mG*mU*mU*mC*mA*dG*dT*dC*dA*dG*dA*dT*dC*dG*dC*mU*mG*mG*mG*mA) [[LINC-PINT]412 KL]	1.70
mU*mA*mA*mA*mA*T*A*A*G*G*G*G*A*A*T*mA*mG*mG*mG*mG (mU*mA*mA*mA*mA*dT*dA*dA*dG*dG*dG*dG*dA*dA*dT*mA*mG*mG*mG*mG) [[CDKN2B-AS1]80]	1.30
mU*mC*mC*mC*mA*A*C*T*C*T*T*C*T*A*A*mC*mU*mC*mG*mU (mU*mC*mC*mC*mA*dA*dC*dT*dC*dT*dT*dC*dT*dA*dA*mC*mU*mC*mG*mU; antisense) [[LINC-PINT]1284 KL]	13.35
mU*mC*mC*mC*mA*T*C*C*C*T*T*C*T*G*C*mU*mG*mA*mC*mA (UCCCATCCCTTCTGCUGACA; sugars from the 5' end m5 d10 m5, all phosphorothioate, methylation of C not given here) [[LINC-PINT]101]	10.88
mU*mC*mU*mC*mC*A*T*G*T*C*C*C*A*G*G*mC*mC*mU*mC*mC (mU*mC*mU*mC*mC*dA*dT*dG*dT*dC*dC*dC*dA*dG*dG*mC*mC*mU*mC*mC; antisense) [[CDKN2B-AS1]2230]	9.17
mU*mC*mU*mC*mU*C*T*G*G*T*C*C*C*A*T*mC*mC*mC*mU*mU (mU*mC*mU*mC*mU*dC*dT*dG*dG*dT*dC*dC*dC*dA*dT*mC*mC*mC*mU*mU; antisense) [[LINC-PINT]110]	11.27
mU*mC*mU*mC*mU*G*G*T*C*C*C*A*T*C*C*mC*mU*mU*mC*mU (UCUCUGGTCCCATCCCUUCU; antisense; sugars from the 5' end m5 d10 m5, all phosphorothioate, methylation of C not given here) [[LINC-PINT]108]	11.42
mU*mC*mU*mG*mG*T*C*C*C*A*T*C*C*C*T*mU*mC*mU*mG*mC (UCUGGTCCCATCCCTUCUGC; antisense; sugars from the 5' end m5 d10 m5, all phosphorothioate, methylation of C not given here) [[LINC-PINT]106]	5.25
mU*mG*mA*mC*mA*A*A*A*C*A*A*T*A*A*T*mA*mA*mC*mA*mG (mU*mG*mA*mC*mA*dA*dA*dA*dC*dA*dA*dT*dA*dA*dT*mA*mA*mC*mA*mG) [[LINC-PINT]384]	2.57
mU*mG*mA*mC*mA*T*T*T*C*G*T*G*G*C*T*mC*mC*mU*mA*mC (mU*mG*mA*mC*mA*dT*dT*dT*dC*dG*dT*dG*dG*dC*dT*mC*mC*mU*mA*mC; antisense) [[LINC-PINT]523 KL]	4.34
mU*mG*mA*mU*mG*A*T*G*C*T*T*G*C*A*G*mG*mA*mG*mG*mC (mU*mG*mA*mU*mG*dA*dT*dG*dC*dT*dT*dG*dC*dA*dG*mG*mA*mG*mG*mC) [[LINC-PINT|283.1]	1.57
mU*mG*mG*mC*mG*T*A*G*T*T*T*C*T*C*T*mU*mC*mC*mU*mC (mU*mG*mG*mC*mG*dT*dA*dG*dT*dT*dT*dC*dT*dC*dT*mU*mC*mC*mU*mC; antisense) [[LINC-PINT]937.1]	4.25
mU*mG*mU*mG*mA*A*A*A*G*A*T*T*A*T*C*mU*mU*mC*mU*mU (UGUGAAAAGATTATCUUCUU; sugars from the 5' end m5 d10 m5, all phosphorothioate, methylation of C not given here) [[CDKN2B-AS1]2137]	4.97
mU*mG*mU*mU*mU*C*C*C*C*G*G*A*G*A*G*mC*mA*mA*mU*mG (UGUUUCCCCGGAGAGCAAUG; antisense; sugars from the 5' end m5 d10 m5, all phosphorothioate, methylation of C not given here) [[LINC-PINT]501 KL]	2.04
mU*mU*mA*mA*mA*T*A*A*T*C*T*A*G*T*T*mU*mG*mA*mA*mG (UUAAATAATCTAGTTUGAAG; sugars from the 5' end m5 d10 m5, all phosphorothioate, methylation of C not given here) [[CDKN2B-AS1]132]	6.43
mU*mU*mA*mG*mC*T*C*C*T*T*G*C*C*T*C*mG*mU*mU*mC*mC (mU*mU*mA*mG*mC*dT*dC*dC*dT*dT*dG*dC*dC*dT*dC*mG*mU*mU*mC*mC; antisense) [[LINC-PINT] 1222]	8.41
mU*mU*mC*mU*mC*T*C*T*G*G*T*C*C*C*A*mU*mC*mC*mC*mU (mU*mU*mC*mU*mC*dT*dC*dT*dG*dG*dT*dC*dC*dC*dA*mU*mC*mC*mC*mU; antisense) [[LINC-PINT]111]	9.51
mU*mU*mG*mG*mC*C*T*G*T*G*G*A*T*G*C*mU*mU*mU*mG*mU (mU*mU*mG*mG*mC*dC*dT*dG*dT*dG*dG*dA*dT*dG*dC*mU*mU*mU*mG*mU) [[LINC-PINT]2673.1]	0.94
mU*mU*mG*mU*mG*A*A*A*A*G*A*T*T*A*T*mC*mU*mU*mC*mU (mU*mU*mG*mU*mG*dA*dA*dA*dA*dG*dA*dT*dT*dA*dT*mC*mU*mU*mC*mU) [[CDKN2B-AS1]2138]	1.94
mU*mU*mU*mG*mA*A*A*T*T*C*A*G*A*A*G*mA*mU*mU*mU*mG (mU*mU*mU*mG*mA*dA*dA*dT*dT*dC*dA*dG*dA*dA*dG*mA*mU*mU*mU*mG) [[LINC PINT|2690]	4.93
